According to patent publication US20240316038A1, “APOL1 INHIBITORS AND METHODS OF USE” (Maze Therapeutics, Inc., priority 2021, published 2024):
pEC50: −log10 of the molar value.

Assays:
APOL1 G2 [1] = molecular target: T1, APOL1 G2 (Homo sapiens, UniProt O14791, DEL388-389); test: APOL1 calcium transport inhibition assay (GCaMP6f calcium influx, FLIPR) in HEK T-REx/GCaMP6f/APOL1 G2 K6.3 cells; assay type: cell-based; settings: inhibition of APOL1-mediated calcium influx; geometric mean of at least 2 assay runs, † = single assay run (technical duplicate)
T1 construct: expressed in transfected cells; host or cells: HEK293 T-REx clonal lines: HEK T-REx/GCaMP6f/APOL1 G2 K6.3 in A1, HEK293/T-REx APOL1 G2/clone #2 in A2
T1 sequence (O14791 with tags, fused parts or gaps DEL388-389): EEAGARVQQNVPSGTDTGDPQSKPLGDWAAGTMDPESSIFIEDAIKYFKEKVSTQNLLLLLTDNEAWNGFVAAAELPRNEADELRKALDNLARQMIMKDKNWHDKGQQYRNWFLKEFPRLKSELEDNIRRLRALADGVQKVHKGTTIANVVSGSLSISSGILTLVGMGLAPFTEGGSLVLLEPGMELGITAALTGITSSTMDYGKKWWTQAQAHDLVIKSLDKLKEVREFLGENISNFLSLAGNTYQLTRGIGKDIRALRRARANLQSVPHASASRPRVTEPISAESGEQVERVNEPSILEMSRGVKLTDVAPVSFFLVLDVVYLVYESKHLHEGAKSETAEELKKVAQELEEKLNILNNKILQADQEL
Summary of the method: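 HEK293 cells stably expressing GCaMP6f, APOL1 G2 induced 6 h with doxycycline (20 ng/mL added), then washed into Ca2+-free Tyrode's buffer pH 7.4. Compounds (8-point dose response) preincubated 10 min at room temperature, then Ca2+ injected to 5 mM final and influx read on FLIPR. AC50 reported as geometric mean of runs.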

APOL1 G2 [2] = molecular target: T1, APOL1 G2; test: Rescue of HEK293 cell death caused by overexpression of APOL1 (CellTiter-Glo luminescence), HEK293/T-REx APOL1 G2/clone #2; assay type: cell-based; settings: reversal of cell death caused by overexpression of APOL1; geometric mean of at least 2 assay runs, † = single assay run (technical duplicate)
Summary of the method: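 Rescue EC50s come from four-parameter logistic fits, geometric mean of at least 2 runs on separate days, each in duplicate. Readout: CellTiter-Glo luminescence after 17 h at 37 °C of 5,000 HEK293/T-REx APOL1 G2 clone #2 cells/well, with 6 ng/mL doxycycline to induce APOL1 and 3-fold serial compound dilutions in 0.5% DMSO.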

AC50 (APOL1 G2 [1]) | Compound | pEC50 (APOL1 G2 [2])
860 nM | CC1CC(COc2ccc(S(C)(=O)=O)cc2)CN1CCc1cc(Cl)cc(C#N)c1 (single isomer, unassigned) [Compound 202, rac-trans or cis-3-chloro-5-{2-[4-[(4-methanesulfonylphenoxy)methyl]-2-methylpyrrolidin-1-yl]ethyl}benzonitrile] | 7.05
9300 nM | CC1CC(COc2ccc(S(C)(=O)=O)cc2)CN1CCc1cc(Cl)cc(C#N)c1 (single isomer, unassigned) [Compound 203, 3-chloro-5-(2-((2R,4S or 2S,4R or 2R,4R or 2S,4S)-2-methyl-4-((4-(methylsulfonyl)phenoxy)methyl)pyrrolidin-1-yl)ethyl)benzonitrile] | 5.45
456 nM | CC1CC(COc2ccc(S(C)(=O)=O)cc2)CN1CCc1cc(Cl)cc(C#N)c1 (single isomer, unassigned) [Compound 204, 3-chloro-5-(2-((2R,4S or 2S,4R or 2S,4S or 2R.4R)-2-methyl-4-((4-(methylsulfonyl)phenoxy)methyl)pyrrolidin-1-yl)ethyl)benzonitrile] | 7.37
> 25000 nM | C[C@]1(O)CN(CCc2cccc(Cl)c2)C[C@@H]1COc1ccc(S(C)(=O)=O)cc1 (single isomer, unassigned) [Compound 206, (3R,4R or 3S,4S)-1-[2-(3-chlorophenyl)ethyl]-4-[(4-methanesulfonylphenoxy)methyl]-3-methylpyrrolidin-3-ol] | < 4.52
340 nM | C[C@@]1(O)CN(CCc2cccc(Cl)c2)C[C@H]1COc1ccc(S(C)(=O)=O)cc1 (single isomer, unassigned) [Compound 207, (3S,4S or 3R,4R)-1-[2-(3-chlorophenyl)ethyl]-4-[(4-methanesulfonylphenoxy)methyl]-3-methylpyrrolidin-3-ol] | 6.03
3740 nM | C[C@@]1(O)CN(CCc2cccc(Cl)c2)C[C@@H]1COc1ccc(S(C)(=O)=O)cc1 (single isomer, unassigned) [Compound 209, (3R,4S or 3S,4R)-1-[2-(3-chlorophenyl)ethyl]-4-[(4-methanesulfonylphenoxy)methyl]-3-methylpyrrolidin-3-ol pyrrolidine-3-ol] | < 4.71
898 nM | C[C@]1(O)CN(CCc2cccc(Cl)c2)C[C@H]1COc1ccc(S(C)(=O)=O)cc1 (single isomer, unassigned) [Compound 210, (3S,4R or 3R,4S)-1-[2-(3-chlorophenyl)ethyl]-4-[(4-methanesulfonylphenoxy)methyl]-3-methylpyrrolidin-3-ol] | 5.51
2550 nM | CC1CNC(COc2ccc(S(C)(=O)=O)cc2)CN1CCc1cccc(Cl)c1 (single isomer, unassigned) [Compound 212, rac-cis or trans-(2R,5S)-1-[2-(3-chlorophenyl)ethyl]-5-[(4-methanesulfonylphenoxy)methyl]-2-methylpiperazine] | < 4.84
877 nM | CC1CNC(COc2ccc(S(C)(=O)=O)cc2)CN1CCc1cccc(Cl)c1 (single isomer, unassigned) [Compound 213, rac-trans or cis-(2R,5S)-1-[2-(3-chlorophenyl)ethyl]-5-[(4-methanesulfonylphenoxy)methyl]-2-methylpiperazine] | 6.02
428 nM | C[C@@H]1C[C@H](COc2ccc(S(C)(=O)=O)cc2)CN1CC(O)c1cccc(Cl)c1 (single isomer, unassigned) [Compound 214, (1R) or (1S)-1-(3-chlorophenyl)-2-[(2R,4S)-4-[(4-methanesulfonylphenoxy)methyl]-2-methylpyrrolidin-1-yl]ethan-1-ol] | 6.17
229 nM | C[C@@H]1C[C@H](COc2ccc(S(C)(=O)=O)cc2)CN1CC(O)c1cccc(Cl)c1 (single isomer, unassigned) [Compound 215, (1S) or (1R)-1-(3-chlorophenyl)-2-[(2R,4S)-4-[(4-methanesulfonylphenoxy)methyl]-2-methylpyrrolidin-1-yl]ethan-1-ol] | 7.37

Further lines, the molecule ahead of its results:

Compound | AC50 (APOL1 G2 [1]) | pEC50 (APOL1 G2 [2])
CC1CC(COc2ccc(S(C)(=O)=O)cc2)CN1CCc1cc(Cl)cc(C#N)c1 (single isomer, unassigned) [Compound 201, 3-chloro-5-(2-((2R,4S or 2S,4R or 2R,4R or 2S,4S)-2-methyl-4-((4-(methylsulfonyl)phenoxy)methyl)pyrrolidin-1-yl)ethyl)benzonitrile] | 620 nM | 5.77
CS(=O)(=O)c1ccc(OCC2CCCCN(CCc3cccc(Cl)c3)C2)cc1 (centres unmarked) [Compound 1, 1-(3-chlorophenethyl)-3-((4-(methylsulfonyl)phenoxy)methyl)azepane] | ≤ 253 nM | 6.28
CS(=O)(=O)c1ccc(OCC2(O)CCCN(CCc3cccc(Cl)c3)C2)cc1 (centres unmarked) [Compound 4, 1-(3-chlorophenethyl)-3-((4-(methylsulfonyl)phenoxy)methyl) piperidin-3-ol] | 1070 nM | 5.63
CN(c1ccc(OCC2CCCN(CCc3cccc(Cl)c3)C2)cc1)S(C)(=O)=O (centres unmarked) [Compound 7, N-(4-((1-(3-chlorophenethyl)piperidin-3-yl)methoxy)phenyl)-N-methylmethanesulfonamide] | < 253 nM | 6.49
CN(c1ccc(OCC2CN(CCc3cccc(Cl)c3)CCCO2)cc1)S(C)(=O)=O (centres unmarked) [Compound 10, N-(4-((4-(3-chlorophenethyl)-1,4-oxazepan-2-yl)methoxy)phenyl)-N-methylmethane-sulfonamide] | 1720 nM | 5.61
CS(=O)(=O)c1ccc(OC[C@@H]2CN(CCc3cccc(Cl)c3)CCN2)cc1 [Compound 13, (S)-1-(3-chlorophenethyl)-3-((4-(methylsulfonyl)phenoxy)methyl)piperazine] | 143 nM | 6.35
CS(=O)(=O)c1ccc(OC[C@H]2CN(CCc3cccc(Cl)c3)CCN2)cc1 [Compound 14, (R)-1-(3-chlorophenethyl)-3-((4-(methylsulfonyl)phenoxy)methyl)piperazine] | 3340 nM | < 4.52
CS(=O)(=O)c1ccc(OC[C@@H]2CCCN(CCc3cccc(Cl)c3)C2)cc1 [Compound 15, (R)-1-(3-chlorophenethyl)-3-((4-(methylsulfonyl)phenoxy)methyl)piperidine] | 287 nM | 6.25
CS(=O)(=O)c1ccc(OC[C@H]2CCCN(CCc3cccc(Cl)c3)C2)cc1 [Compound 16, (S)-1-(3-chlorophenethyl)-3-((4-(methylsulfonyl)phenoxy)methyl)piperidine] | 231 nM | 6.48
CS(=O)(=O)c1ccc(OC[C@H]2CCCN(CC(O)c3cccc(Cl)c3)C2)cc1 (stereo partly drawn) [Compound 17, 1-(3-chlorophenyl)-2-((S)-3-((4-(methylsulfonyl)phenoxy)methyl)piperidin-1-yl)ethan-1-ol] | 1370 nM | 6.17
CS(=O)(=O)c1ccc(OC[C@@H]2CCCN(CC(O)c3cccc(Cl)c3)C2)cc1 (stereo partly drawn) [Compound 20, 1-(3-chlorophenyl)-2-((R)-3-((4-(methylsulfonyl)phenoxy)methyl)piperidin-1-yl)ethanol] | 1760 nM | 5.87
CS(=O)(=O)c1ccc(CCC2CCCN(CCc3cccc(Cl)c3)C2)cc1 (centres unmarked) [Compound 39, 1-(3-chlorophenethyl)-3-(4-(methylsulfonyl)phenethyl)piperidine] | 249 nM | 6.04
CC1(C)CC(COc2ccc(S(C)(=O)=O)cc2)CN1CCc1cccc(Cl)c1 (centres unmarked) [Compound 42, 1-(3-chlorophenethyl)-2,2-dimethyl-4-((4-(methylsulfonyl)phenoxy)methyl) pyrrolidine] | 477 nM | 7.23
CN(c1ccc(O[C@H]2C[C@H](NCCc3cccc(Cl)c3)C2)cc1)S(C)(=O)=O [Compound 48, trans-N-(4-(3-((3-chlorophenethyl)amino)cyclobutoxy)phenyl)-N-methylmethanesulfonamide] | 1920 nM | 5.60
CN(c1ccc(OC[C@H]2CCN(CCc3cccc(Cl)c3)C2)cc1)S(C)(=O)=O [Compound 49, (S)-N-(4-((1-(3-chlorophenethyl)pyrrolidin-3-yl)methoxy)phenyl)-N-methylmethanesulfonamide] | 847 nM | 6.02
CN(c1ccc(OC[C@@H]2CCN(CCc3cccc(Cl)c3)C2)cc1)S(C)(=O)=O [Compound 50, (R)-N-(4-((1-(3-chlorophenethyl)pyrrolidin-3-yl)methoxy)phenyl)-N-methylmethanesulfonamide] | 1320 nM | 5.69
CS(=O)(=O)c1ccc(OC[C@H]2CCN(CCc3cccc(Cl)c3)C2)cc1 [Compound 51, (S)-1-(3-chlorophenethyl)-3-((4-(methylsulfonyl)phenoxy)methyl)pyrrolidine] | 727 nM | 5.83
